Measured values published in patent publication US8466162B2, “5-alkynyl-pyridines” (Boehringer Ingelheim International GmbH, priority 2011, dated 2013).

Experiments:
[1] = test system: MCF7 cells; test: alamarBlue MCF7 cell assay (antiproliferative/cytotoxicity); format: cell-based; settings: MCF7 human breast cancer cell line
From the text: (§1) The H460, MB453, U87, MCF7 and BT474 alamarBlue cell assays provide EC50 values indicative of the antiproliferative or cytotoxic effects of the compounds to respectively the H460 (human non small cell line cancer), MB-453 (breast cancer cell line), U87 (glioblastoma cell line), MCF7 (breast cancer cell line) and BT474 (breast cancer cell line). As known in the field, antiproliferative or cytotoxic effect against this cell lines would be expected to be indicative of activity in treating lung, breast and brain cancers. See R. Marone R et al. Biochim. Biophys. Acta. 2008 January; 1784(1):159-85. S. Yaguchi et al., J. Natl. Cancer Inst. 2006 Apr. 19; 98(8):545-56.
(§2) Method Type: Antiproliferative/Cytotoxicity
(§3) alamarBlue® is designed to provide a rapid and sensitive measure of cell proliferation and cytotoxicity in various human and animal cell lines. The assay is based on the reduction of alamarBlue in the reducing environment of living (metabolically active) cells. In the presence of added cytotoxic or antiproliferative compounds, the innate metabolic activity ceases.
(§4) AlamarBlue is soluble and stable in culture medium. Measurements are made fluorometrically by exciting at 530-560 nm and measuring emission at 590 nm. In reporting percent alamarBlue reduction by monitoring fluorescence, data are expressed as fluorescence emission intensity units as a function of time of incubation.
(§5) 3. Equipment • 96-well plates, flat bottom (Falcon, Cat. No.: 353072) • 96-well plates, U-shaped (Costar, Cat. No.: 3799) • CO2-Incubator • Microplate Reader, Spectramax Plus, Molecular Devices 4. Typical Procedure • Day 0: Seed 3000 BT-474 cells (IMDM/5% FCS, 1% NEAA, 1% Sodiumpyruvat) in 150 μl medium into a 96-well plate, flat bottom (include mediumblank). Incubate plates at 37° C. in a CO2 incubator overnight. • Day 1: Dilute compounds to a concentration 40 μM ->1:3 in medium, 10 dilution steps, in 96-well plates. • Add 50 μl per well of each dilution (total volume per well 200 μl; final conc. of cpds: 10 μM ->1:3). If required, test further dilutions. • All concentrations are tested in duplicates. • Controls: Cells w/o cpd. (+50 μl medium/DMSO). • Cells are incubated with compounds for 5-6 days. • Day 6 or 7: Add 25 μl of alamarBlue solution to each well and incubate for 8 hours at 37° C. Measure fluorescence by exciting at 530-560 nm and measuring emission at 590 nm 5. Evaluation • Subtract average value for medium blank from sample readings • Calculate EC50 using GraphPad Prism (Fifty)

[2] = molecular target: T1, PI3Kalpha (Homo sapiens, UniProt P42336); test: Inhibition of PI3Kalpha-induced PIP-2 phosphorylation (filter-binding assay, 33P-ATP); format: biochemical; settings: PI3 Kinase alpha (p85alpha/His-p110alpha), 1 μM ATP; read-out: IC50 PI3Kα
T1 construct: His (N); made in house; host or cells: SF9 insect cells (baculovirus co-infection)
T1 sequence (P27986 whole entry): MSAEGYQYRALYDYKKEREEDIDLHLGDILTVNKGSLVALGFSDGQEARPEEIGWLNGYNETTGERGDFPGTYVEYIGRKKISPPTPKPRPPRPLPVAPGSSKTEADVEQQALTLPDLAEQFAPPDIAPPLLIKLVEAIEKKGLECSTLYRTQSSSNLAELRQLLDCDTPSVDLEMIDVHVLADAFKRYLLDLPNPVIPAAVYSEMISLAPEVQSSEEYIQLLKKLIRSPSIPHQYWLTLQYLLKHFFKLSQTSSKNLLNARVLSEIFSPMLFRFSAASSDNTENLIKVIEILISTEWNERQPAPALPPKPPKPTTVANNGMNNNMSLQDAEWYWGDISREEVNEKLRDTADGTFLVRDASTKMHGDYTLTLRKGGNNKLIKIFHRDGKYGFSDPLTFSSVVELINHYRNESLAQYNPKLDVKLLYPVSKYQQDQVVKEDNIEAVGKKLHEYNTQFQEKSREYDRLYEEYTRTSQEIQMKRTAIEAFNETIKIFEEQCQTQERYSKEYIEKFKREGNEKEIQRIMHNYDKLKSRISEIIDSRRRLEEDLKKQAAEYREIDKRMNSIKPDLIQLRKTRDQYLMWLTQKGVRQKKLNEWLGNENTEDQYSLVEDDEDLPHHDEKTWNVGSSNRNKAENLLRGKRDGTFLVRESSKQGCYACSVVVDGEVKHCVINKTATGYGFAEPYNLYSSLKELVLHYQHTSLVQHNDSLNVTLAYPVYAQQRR
T1 sequence (P42336 whole entry): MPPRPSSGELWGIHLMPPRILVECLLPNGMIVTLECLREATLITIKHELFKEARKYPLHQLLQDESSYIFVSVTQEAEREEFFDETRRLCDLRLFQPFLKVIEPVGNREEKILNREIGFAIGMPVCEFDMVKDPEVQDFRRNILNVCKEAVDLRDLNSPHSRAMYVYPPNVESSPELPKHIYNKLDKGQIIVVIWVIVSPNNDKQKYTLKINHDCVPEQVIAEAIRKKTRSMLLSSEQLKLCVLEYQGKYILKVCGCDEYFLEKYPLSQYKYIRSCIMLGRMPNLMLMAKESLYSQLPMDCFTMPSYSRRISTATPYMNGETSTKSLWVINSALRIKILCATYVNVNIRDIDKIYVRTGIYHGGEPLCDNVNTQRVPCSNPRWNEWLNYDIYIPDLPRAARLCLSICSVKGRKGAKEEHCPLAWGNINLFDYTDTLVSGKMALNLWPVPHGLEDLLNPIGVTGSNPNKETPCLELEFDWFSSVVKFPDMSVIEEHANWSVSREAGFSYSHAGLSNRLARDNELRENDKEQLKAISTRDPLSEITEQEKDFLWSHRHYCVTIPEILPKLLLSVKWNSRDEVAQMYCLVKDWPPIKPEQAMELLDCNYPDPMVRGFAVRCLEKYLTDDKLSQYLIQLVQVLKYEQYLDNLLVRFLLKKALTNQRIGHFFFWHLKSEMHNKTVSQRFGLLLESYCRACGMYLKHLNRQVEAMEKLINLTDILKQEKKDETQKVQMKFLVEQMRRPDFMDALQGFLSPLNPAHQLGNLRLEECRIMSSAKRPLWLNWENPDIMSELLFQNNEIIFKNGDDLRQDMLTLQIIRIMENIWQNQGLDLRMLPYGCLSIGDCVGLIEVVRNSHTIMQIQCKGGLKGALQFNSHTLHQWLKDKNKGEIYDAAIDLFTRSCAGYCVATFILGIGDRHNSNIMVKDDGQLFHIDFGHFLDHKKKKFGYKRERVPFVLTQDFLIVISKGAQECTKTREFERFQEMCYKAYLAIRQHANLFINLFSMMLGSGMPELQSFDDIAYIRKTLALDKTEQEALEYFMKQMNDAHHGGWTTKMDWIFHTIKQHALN
Procedure: Biological Methods Inhibition of PI3Kalpha-Induced PIP-2 Phosphorylation
See also J. A. Engelman, Nature Reviews Cancer, 2009, 9, 550-562; A. Carnero, Expert Opin. Investig. Drugs, 2009, 18, 1265-1277 and P. Liu et al., Nature Reviews Drug Discovery, 2009, 8, 627-64.
Method Type: Filter-Binding-Assay
Aliquoted in desired amounts and stored at −80° C. […] Assay Procedure
The substrate-containing lipid vesicles are dissolved to a concentration of 0.637 mg lipid blend/ml assay buffer (with BSA, freshly added) in 50 ml Falcon ->keep on ice, followed by ultrasonication (pulse of 15 sec followed by a pause of 10 sec, 4×). Compounds are serially diluted in assay buffer+6% DMSO and 10 μl of each dilution is added per well of a 96-well plate (compounds are tested in duplicates) and mixed with 30 μl of the lipid vesicles containing PDGFR-Peptide (0.5 μM final) and PI3K alpha (25 ng/well final). The mixture is then incubated for 20 minutes at room temperature.
Subsequently, 20 μl of assay buffer containing 3 μM cold ATP and 0.5 μCi/20 μl 33P-ATP are added. The plates are then incubated at room temperature for 120 minutes (shaking with 300 rpm).
The reaction mix is transferred onto filter plates using “filtermate harvester” from Packard: filter plates are rinsed with PBS, then the reaction mix is filtered onto the filter plate, washed 5 times with PBS and are allowed to dry for 30-60 minutes at 50° C. The plate bottom is sealed with Perkin Elmer white adhesive foil and 25 μl/well Microscint0 are added, the top is covered with transparent adhesive foil and the plate is measured with Wallac Trilux 1450 Microbeta Counter.
As positive control serve wells containing vehicle controls (1% DMSO in assay buffer), showing non-inhibited kinase activity (high values). Wells containing assay buffer instead of enzyme can serve as control for background activity (low values).
Calculate IC50 values using the Smiley program (based on GrapPad Prism)

[3] = test system: BT474 cells; test: alamarBlue BT474 cell assay (antiproliferative/cytotoxicity); format: cell-based; settings: BT-474 human breast cancer cell line, 5-6 days incubation
From the text: as §1, §2, §3, §4, §5

[4] = test system: H460 cells; test: alamarBlue H460 cell assay (antiproliferative/cytotoxicity); format: cell-based; settings: NCI-H460; H460 human lung carcinoma cells
From the text: as §1, §2, §3, §4, §5

Compound: CNC(=O)c1ccc(-c2nc(N)nc(C)c2C#Cc2cnc(Cl)c(NS(C)(=O)=O)c2)cc1Cl [Example 26, 4-[2-Amino-5-(6-chloro-5-methanesulfonylamino-pyridin-3-ylethynyl)-6-methyl-pyrimidin-4-yl]-2-chloro-N-methyl-benzamide]
- EC50 [1]: 17 nM
- IC50 [2]: 0.83 nM
- EC50 [3]: 53 nM
- EC50 [4]: 151 nM

Compound: CCc1nc(N)nc(-c2cccc(CN(C)C)c2)c1C#Cc1cnc(C)c(NS(=O)(=O)c2ccc(F)cc2F)c1 [Example 35, N-{5-[2-Amino-4-(3-dimethylaminomethyl-phenyl)-6-ethyl-pyrimidin-5-ylethynyl]-2-methyl-pyridin-3-yl}-2,4-difluoro-benzenesulfonamide]
- IC50 [2]: 2 nM

Compound: CCc1ncnc(-c2ccc(OC)c(OC)c2OC)c1C#Cc1cnc(C)c(NS(C)(=O)=O)c1 [Example 80, N-{5-[4-Ethyl-6-(2,3,4-trimethoxy-phenyl)-pyrimidin-5-ylethynyl]-2-methyl-pyridin-3-yl}-methanesulfonamide]
- IC50 [2]: 43 nM

Compound: CCc1ncnc(-c2cc(C#N)ccc2F)c1C#Cc1cnc(C)c(NS(C)(=O)=O)c1 [Example 66, N-{5-[4-(5-Cyano-2-fluoro-phenyl)-6-ethyl-pyrimidin-5-ylethynyl]-2-methyl-pyridin-3-yl}-methanesulfonamide]
- IC50 [2]: 34 nM

Compound: CCc1ncnc(-c2c(C)cccc2C)c1C#Cc1cnc(C)c(NS(C)(=O)=O)c1 [Example 58, N-{5-[4-(2,6-Dimethyl-phenyl)-6-ethyl-pyrimidin-5-ylethynyl]-2-methyl-pyridin-3-yl}-methanesulfonamide]
- IC50 [2]: 380 nM

Compound: CCc1ncnc(-c2ccc(OC)c(OC)c2C)c1C#Cc1cnc(C)c(NS(C)(=O)=O)c1 [Example 24, N-{5-[4-(3,4-Dimethoxy-2-methyl-phenyl)-6-ethyl-pyrimidin-5-ylethynyl]-2-methyl-pyridin-3-yl}-methanesulfonamide]
- IC50 [2]: 28 nM

Compound: CCS(=O)(=O)Nc1cc(C#Cc2c(C)nc(N)nc2-c2ccnc(C)c2)cnc1C [Example 20, Ethanesulfonic acid {5-[2-amino-4-methyl-6-(2-methyl-pyridin-4-yl)-pyrimidin-5-ylethynyl]-2-methyl-pyridin-3-yl}-amide]
- IC50 [2]: 14 nM
- EC50 [4]: 1820 nM

Compound: CCc1nc(N)nc(-c2ccnc(C)c2)c1C#Cc1cnc(C)c(NS(C)(=O)=O)c1 [Example 15, N-{5-[2-Amino-4-ethyl-6-(2-methyl-pyridin-4-yl)-pyrimidin-5-ylethynyl]-2-methyl-pyridin-3-yl}-methanesulfonamide]
- EC50 [1]: 40 nM
- IC50 [2]: 0.95 nM
- EC50 [3]: 107 nM
- EC50 [4]: 294 nM

Compound: CCc1nc(N)nc(-c2cccc(CN(C)C)c2)c1C#Cc1cnc(C)c(NS(C)(=O)=O)c1 [Example 19, N-{5-[2-Amino-4-(3-dimethylaminomethyl-phenyl)-6-ethyl-pyrimidin-5-ylethynyl]-2-methyl-pyridin-3-yl}-methanesulfonamide]
- EC50 [1]: 313 nM
- IC50 [2]: 6 nM
- EC50 [3]: 806 nM

Compound: CCc1nc(N)nc(-c2ccc(C)nc2)c1C#Cc1cnc(C)c(NS(C)(=O)=O)c1 [Example 14, N-{5-[2-Amino-4-ethyl-6-(6-methyl-pyridin-3-yl)-pyrimidin-5-ylethynyl]-2-methyl-pyridin-3-yl}-methanesulfonamide]
- EC50 [1]: 16 nM
- IC50 [2]: 1 nM
- EC50 [3]: 89 nM
- EC50 [4]: 305 nM

Compound: CCc1nc(N)nc(-c2cccnc2)c1C#Cc1cnc(C)c(NS(C)(=O)=O)c1 [Example 12, N-[5-(2-Amino-4-ethyl-6-pyridin-3-yl-pyrimidin-5-ylethynyl)-2-methyl-pyridin-3-yl]-methanesulfonamide]
- IC50 [2]: 2 nM
- EC50 [4]: 1240 nM

Compound: CCc1ncnc(-c2ccnc(C)c2)c1C#Cc1cnc(C)c(NS(=O)(=O)c2ccc(F)cc2Cl)c1 [Example 90, 2-Chloro-N-{5-[4-ethyl-6-(2-methyl-pyridin-4-yl)-pyrimidin-5-ylethynyl]-2-methyl-pyridin-3-yl}-4-fluoro-benzenesulfonamide]
- IC50 [2]: 2 nM

Compound: CCc1ncnc(-c2ccccc2C)c1C#Cc1cnc(C)c(NS(C)(=O)=O)c1 [Example 60, N-[5-(4-Ethyl-6-o-tolyl-pyrimidin-5-ylethynyl)-2-methyl-pyridin-3-yl}-methanesulfonamide]
- IC50 [2]: 37 nM

Compound: CCc1nc(N)nc(-c2cccc(F)c2)c1C#Cc1cnc(C)c(NS(C)(=O)=O)c1 [Example 16, N-{5-[2-Amino-4-ethyl-6-(3-fluoro-phenyl)-pyrimidin-5-ylethynyl]-2-methyl-pyridin-3-yl}-methanesulfonamide]
- IC50 [2]: 2 nM
- EC50 [4]: 337 nM

Compound: CCc1ncnc(-c2ccnc(C)c2)c1C#Cc1cnc(C)c(NS(=O)(=O)c2ccc(Br)cc2C)c1 [Example 97, 4-Bromo-N-{5-[4-ethyl-6-(2-methyl-pyridin-4-yl)-pyrimidin-5-ylethynyl]-2-methyl-pyridin-3-yl}-2-methyl-benzenesulfonamide]
- IC50 [2]: 12 nM
- EC50 [3]: 1530 nM

Compound: CCc1ncnc(-c2cc(CN)ccc2F)c1C#Cc1cnc(C)c(NS(C)(=O)=O)c1 [Example 77, N-{5-[4-(5-Aminomethyl-2-fluoro-phenyl)-6-ethyl-pyrimidin-5-ylethynyl]-2-methyl-pyridin-3-yl}-methanesulfonamide]
- IC50 [2]: 150 nM

Compound: CCc1ncnc(-c2cc(C(F)(F)F)ccc2OC)c1C#Cc1cnc(C)c(NS(C)(=O)=O)c1 [Example 68, N-{5-[4-Ethyl-6-(2-methoxy-5-trifluoromethyl-phenyl)-pyrimidin-5-ylethynyl]-2-methyl-pyridin-3-yl}-methanesulfonamide]
- IC50 [2]: 136 nM

Compound: CCc1nc(N)nc(-c2ccccc2)c1C#Cc1cnc(C)c(NS(C)(=O)=O)c1 [Example 17, N-[5-(2-Amino-4-ethyl-6-phenyl-pyrimidin-5-ylethynyl)-2-methyl-pyridin-3-yl]-methanesulfonamide]
- IC50 [2]: 2 nM
- EC50 [4]: 172 nM

Compound: CCc1ncnc(-c2cccc(CN)c2F)c1C#Cc1cnc(C)c(NS(C)(=O)=O)c1 [Example 79, N-{5-[4-(3-Aminomethyl-2-fluoro-phenyl)-6-ethyl-pyrimidin-5-ylethynyl]-2-methyl-pyridin-3-yl}-methanesulfonamide]
- IC50 [2]: 44 nM

Compound: CCc1ncnc(-c2cc(C(F)(F)F)ccc2F)c1C#Cc1cnc(C)c(NS(C)(=O)=O)c1 [Example 67, N-{5-[4-Ethyl-6-(2-fluoro-5-trifluoromethyl-phenyl)-pyrimidin-5-ylethynyl]-2-methyl-pyridin-3-yl}-methanesulfonamide]
- IC50 [2]: 46 nM

Compound: CCc1nc(N)nc(-c2ccc(CN3CCOCC3)cc2)c1C#Cc1cnc(C)c(NS(C)(=O)=O)c1 [Example 18, N-{5-[2-Amino-4-ethyl-6-(4-morpholin-4-ylmethyl-phenyl)-pyrimidin-5-ylethynyl]-2-methyl-pyridin-3-yl}-methanesulfonamide]
- EC50 [1]: 118 nM
- IC50 [2]: 2 nM
- EC50 [3]: 260 nM
